According to patent US9540392B2, “Thienopyrimidines” (BAYER PHARMA AKTIENGESELLSCHAFT, priority 2012, dated 2017):

target: T1, human full-length MKNK1 (Homo sapiens, UniProt Q9BUB5, T385D); experiment: MKNK1 kinase high ATP assay (TR-FRET); format: biochemical; details: 2 mM ATP, after preincubation with MKNK1; read-out: MKNK1 IC50 (MKNK1 high ATP)
T1 construct: GST (N); purchased Carna Biosciences 02-145; host or cells: insect cells (baculovirus expression system)
Method in brief: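 Compound was preincubated 15 min at 22° C. with MKNK1 in 50 mM HEPES pH 7.5, 5 mM MgCl2, 1.0 mM DTT, then the reaction ran 30 min at 22° C. with 2 mM ATP and 0.06 μM biotinylated peptide (final).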

T1 sequence (Q9BUB5 1-424 isoform Q9BUB5-2 T344D): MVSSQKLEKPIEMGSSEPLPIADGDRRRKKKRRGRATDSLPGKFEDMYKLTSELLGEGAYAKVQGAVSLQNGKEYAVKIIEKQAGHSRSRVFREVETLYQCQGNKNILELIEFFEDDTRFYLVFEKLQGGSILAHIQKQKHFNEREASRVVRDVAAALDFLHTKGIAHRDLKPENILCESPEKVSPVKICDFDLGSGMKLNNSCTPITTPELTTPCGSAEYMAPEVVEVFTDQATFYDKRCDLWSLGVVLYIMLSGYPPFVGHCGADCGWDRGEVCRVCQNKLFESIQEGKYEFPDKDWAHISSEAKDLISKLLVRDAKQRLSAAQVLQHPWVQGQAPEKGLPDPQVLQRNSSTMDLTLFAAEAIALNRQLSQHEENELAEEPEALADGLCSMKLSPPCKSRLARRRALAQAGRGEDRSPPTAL

| IC50 [nM] | SMILES |
| --- | --- |
| 5 | C#CCN(C)C(=O)C1CCc2c(sc3ncnc(Nc4ccc5[nH]ncc5c4)c23)C1 (stereo not drawn) [Example 35, 4-(1H-Indazol-5-ylamino)-N-methyl-N-(prop-2-yn-1-yl)-5,6,7,8-tetrahydro[1] benzothieno [2,3-d]pyrimidine-7-carboxamide] |
| 0.7 | CCOc1cc2[nH]ncc2cc1Nc1ncnc2sc3c(c12)CCC(C(=O)N(C)CC(F)F)C3 (racemic) [Example 226, (RS)—N-(2,2-Difluoroethyl)-4-[(6-ethoxy-1H-indazol-5-yl)amino]-N-methyl-5,6,7,8-tetrahydro[1]benzothieno[2,3-d]pyrimidine-7-carboxamide] |
| 16.3 | CN(C)CCCN(C)C(=O)C1CCc2c(sc3ncnc(Nc4ccc5[nH]ncc5c4)c23)C1 (racemic) [Example 96, (RS)-N-[3-(dimethylamino)propyl]-4-(1H-indazol-5-ylamino)-N-methyl-5,6,7,8-tetrahydro[1]benzothieno[2,3-d]pyrimidine-7-carboxamide] |
| 9 | CN(C)CCN(C)C(=O)C1CCc2c(sc3ncnc(Nc4ccc5[nH]ncc5c4)c23)C1 (stereo not drawn) [Example 45, N-[2-(Dimethylamino)ethyl]-4-(1H-indazol-5-ylamino)-N-methyl-5,6,7,8-tetrahydro[1] benzothieno [2,3-d]pyrimidine-7-carboxamide] |
| 14.9 | O=C(C1CCc2c(sc3ncnc(Nc4ccc5[nH]ncc5c4)c23)C1)N1CCN(Cc2ccccc2)CC1 (racemic) [Example 86, (RS)-(4-benzylpiperazin-1-yl)[4-(1H-indazol-5-ylamino)-5,6,7,8-tetrahydro[1]benzothieno[2,3-d]pyrimidin-7-yl]methanone] |
| 3 | COc1ccc(CCNC(=O)C2CCc3c(sc4ncnc(Nc5ccc6[nH]ncc6c5)c34)C2)cc1 (stereo not drawn) [Example 25, 4-(1H-Indazol-5-ylamino)-N-[2-(4-methoxyphenyl)ethyl]-5,6,7,8-tetrahydro[1] benzothieno [2,3-d]pyrimidine-7-carboxamide] |
| 0.3 | CCOc1cc2[nH]ncc2cc1Nc1ncnc2sc3c(c12)CCC(C(=O)N(CC)CCC#N)C3 (racemic) [Example 242, (RS)—N-(2-Cyanoethyl)-4-[(6-ethoxy-1H-indazol-5-yl)amino]-N-ethyl-5,6,7,8-tetrahydro[1]benzothieno[2,3-d]pyrimidine-7-carboxamide] |
| 9.1 | O=C(NC1CC1)C1CCc2c(sc3ncnc(Nc4ccc5[nH]ncc5c4)c23)C1 (racemic) [Example 80, (RS)-N-Cyclopropyl-4-(1H-indazol-5-ylamino)-5,6,7,8-tetrahydro[1]benzothieno[2,3-d]pyrimidine-7-carboxamide] |
| 6 | CCN(CCC#N)C(=O)C1CCc2c(sc3ncnc(Nc4ccc5[nH]ncc5c4)c23)C1 (racemic) [Example 190, (RS)-N-(2-cyanoethyl)-N-ethyl-4-(1H-indazol-5-ylamino)-5,6,7,8-tetrahydro[1]benzothieno[2,3-d]pyrimidine-7-carboxamide] |
| 0.6 | CC(C)Oc1cc2[nH]ncc2cc1Nc1ncnc2sc3c(c12)CCC(C(=O)N(C)CC1CC1)C3 (racemic) [Example 220, (RS)—N-(Cyclopropylmethyl)-N-methyl-4-{[6-(propan-2-yloxy)-1H-indazol-5-yl]amino}-5,6,7,8-tetrahydro[1]benzothieno[2,3-d]pyrimidine-7-carboxamide] |
| 8.9 | COC(=O)C1CCc2c(sc3ncnc(Nc4ccc5[nH]ncc5c4)c23)C1 (racemic) [Example 73, (RS)-Methyl 4-(1H-indazol-5-ylamino)-5,6,7,8-tetrahydro[1]benzothieno[2,3-d]pyrimidine-7-carboxylate] |
| 15 | O=C(Nc1ccnnc1)C1CCc2c(sc3ncnc(Nc4ccc5[nH]ncc5c4)c23)C1 (racemic) [Example 128, (RS)-4-(1H-indazol-5-ylamino)-N-(pyridazin-4-yl)-5,6,7,8-tetrahydro[1]benzothieno[2,3-d]pyrimidine-7-carboxamide] |
| 12 | O=C(C1CCc2c(sc3ncnc(Nc4ccc5[nH]ncc5c4)c23)C1)N1CCC(O)(C(F)(F)F)CC1 (racemic) [Example 194, (RS)-[4-hydroxy-4-(trifluoromethyl)piperidin-1-yl][4-(1H-indazol-5-ylamino)-5,6,7,8-tetrahydro[1]benzothieno[2,3-d]pyrimidin-7-yl]methanone] |
| 22.5 | CNC(=O)CN1CCN(C(=O)C2CCc3c(sc4ncnc(Nc5ccc6[nH]ncc6c5)c34)C2)CC1 (racemic) [Example 164, (RS)-2-(4-{[4-(1H-indazol-5-ylamino)-5,6,7,8-tetrahydro[1]benzothieno[2,3-d]pyrimidin-7-yl]carbonyl}piperazin-1-yl)-N-methylacetamide] |
| 15.3 | O=C(CN1CCN(C(=O)C2CCc3c(sc4ncnc(Nc5ccc6[nH]ncc6c5)c34)C2)CC1)NC1CC1 (racemic) [Example 166, (RS)-N-cyclopropyl-2-(4-{[4-(1H-indazol-5-ylamino)-5,6,7,8-tetrahydro[1]benzothieno[2,3-d]pyrimidin-7-yl]carbonyl}piperazin-1-yl)acetamide] |
| 0.7 | CC(C)Oc1cc2[nH]ncc2cc1Nc1ncnc2sc3c(c12)CCC(C(=O)N1CCCC1)C3 (racemic) [Example 221, (RS)-(4-{[6-(Propan-2-yloxy)-1H-indazol-5-yl]amino}-5,6,7,8-tetrahydro[1]benzothieno[2,3-d]pyrimidin-7-yl)(pyrrolidin-1-yl)methanone] |
| 8 | CN(CCO)C(=O)C1CCc2c(sc3ncnc(Nc4ccc5[nH]ncc5c4)c23)C1 (stereo not drawn) [Example 41, N-(2-Hydroxyethyl)-4-(1H-indazol-5-ylamino)-N-methyl-5,6,7,8-tetrahydro[1] benzothieno [2,3-d]pyrimidine-7-carboxamide] |
| 3.7 | O=C(NC1(c2ccccc2)CC1)C1CCc2c(sc3ncnc(Nc4ccc5[nH]ncc5c4)c23)C1 (racemic) [Example 147, (RS)-4-(1H-indazol-5-ylamino)-N-(1-phenylcyclopropyl)-5,6,7,8-tetrahydro[1]benzothieno[2,3-d]pyrimidine-7-carboxamide] |
| 5 | Cc1ccc(NC(=O)C2CCc3c(sc4ncnc(Nc5ccc6[nH]ncc6c5)c34)C2)cc1 (stereo not drawn) [Example 17, 4-(1H-indazol-5-ylamino)-N-(4-methylphenyl)-5,6,7,8-tetrahydro[1]benzothieno[2,3-d]pyrimidine-7-carboxamide] |
| 3 | CN(Cc1ccncc1)C(=O)C1CCc2c(sc3ncnc(Nc4ccc5[nH]ncc5c4)c23)C1 (stereo not drawn) [Example 26, 4-(1H-Indazol-5-ylamino)-N-methyl-N-(pyridin-4-ylmethyl)-5,6,7,8-tetrahydro[1] benzothieno [2,3-d]pyrimidine-7-carboxamide] |
| 2.7 | CCCOc1cc2[nH]ncc2cc1Nc1ncnc2sc3c(c12)CCC(C(=O)N(C)C)C3 (racemic) [Example 269, (RS)—N,N-Dimethyl-4-[(6-propoxy-1H-indazol-5-yl)amino]-5,6,7,8-tetrahydro[1]benzothieno[2,3-d]pyrimidine-7-carboxamide] |
| 0.9 | CC(C)Oc1cc2[nH]ncc2cc1Nc1ncnc2sc3c(c12)CCC(C(=O)N1CC2(CCS2(=O)=O)C1)C3 (racemic) [Example 222, (RS)-(1,1-Dioxido-1-thia-6-azaspiro[3.3]hept-6-yl)(4-{[6-(propan-2-yloxy)-1H-indazol-5-yl]amino}-5,6,7,8-tetrahydro[1]benzothieno[2,3-d]pyrimidin-7-yl)methanone] |
| 1.5 | CCOc1cc2[nH]ncc2cc1Nc1ncnc2sc3c(c12)CCC(C(=O)N1CCC1)C3 (racemic) [Example 223, (RS)-Azetidin-1-yl{4-[(6-ethoxy-1H-indazol-5-yl)amino]-5,6,7,8-tetrahydro[1]benzothieno[2,3-d]pyrimidin-7-yl}methanone] |
| 2.4 | O=C(NCc1ccccn1)C1CCc2c(sc3ncnc(Nc4ccc5[nH]ncc5c4)c23)C1 (racemic) [Example 81, (RS)-4-(1H-indazol-5-ylamino)-N-(pyridin-2-ylmethyl)-5,6,7,8-tetrahydro[1]benzothieno[2,3-d]pyrimidine-7-carboxamide] |
| 13.2 | CN1CCCN(C(=O)C2CCc3c(sc4ncnc(Nc5ccc6[nH]ncc6c5)c34)C2)CC1 (racemic) [Example 118, (RS)-[4-(1H-indazol-5-ylamino)-5,6,7,8-tetrahydro[1]benzothieno[2,3-d]pyrimidin-7-yl](4-methyl-1,4-diazepan-1-yl)methanone] |
| 1.6 | CCOc1cc2[nH]ncc2cc1Nc1ncnc2sc3c(c12)CCC(C(=O)N(C)C)C3 (racemic) [Example 254, (RS)-4-[(6-Ethoxy-1H-indazol-5-yl)amino]-N,N-dimethyl-5,6,7,8-tetrahydro[1]benzothieno[2,3-d]pyrimidine-7-carboxamide] |
| 12 | O=C(C1CCc2c(sc3ncnc(Nc4ccc5[nH]ncc5c4)c23)C1)N1CCCC(O)C1 (racemic) [Example 108, (RS)-(3-hydroxypiperidin-1-yl)[4-(1H-indazol-5-ylamino)-5,6,7,8-tetrahydro[1]benzothieno[2,3-d]pyrimidin-7-yl]methanone] |
| 0.6 | COc1cc2[nH]ncc2cc1Nc1ncnc2sc3c(c12)CCC(C(=O)N1CC(O)C1)C3 (racemic) [Example 272, (RS)-(3-Hydroxyazetidin-1-yl){4-[(6-methoxy-1H-indazol-5-yl)amino]-5,6,7,8-tetrahydro[1]benzothieno[2,3-d]pyrimidin-7-yl}methanone] |
| 0.5 | CC(C)Oc1cc2[nH]ncc2cc1Nc1ncnc2sc3c(c12)CCC(C(=O)N(C)CC(F)F)C3 (racemic) [Example 216, (RS)—N-(2,2-Difluoroethyl)-N-methyl-4-{[6-(propan-2-yloxy)-1H-indazol-5-yl]amino}-5,6,7,8-tetrahydro[1]benzothieno[2,3-d]pyrimidine-7-carboxamide] |
| 4 | CC(C)NC(=O)C1CCc2c(sc3ncnc(Nc4ccc5[nH]ncc5c4)c23)C1 (stereo not drawn) [Example 6, 4-(1H-Indazol-5-ylamino)-N-isopropyl-5,6,7,8-tetrahydro[1]benzothieno[2,3-d]pyrimidine-7-carboxamide] |
